Data on five compounds can be found in patent US8372843B2, “Quinolines useful as modulators of ION channels” (Vertex Pharmaceuticals Incorporated, priority 2005, dated 2013).

Like-named read-outs stand apart in the source and are kept apart here.

In assay [1] the target is T1, NaV1.8 (Homo sapiens, UniProt Q9Y5Y9). In words: Activity against NaV1.8 channel (Table 4). It is filed as cell-based. The protocol:
Compounds of the invention are useful as antagonists of voltage-gated sodium ion channels. Antagonist properties of test compounds were assessed as follows. Cells expressing the NaV of interest were placed into microtiter plates. After an incubation period, the cells were stained with fluorescent dyes sensitive to the transmembrane potential. The test compounds were added to the microtiter plate. The cells were stimulated with either a chemical or electrical means to evoke a NaV dependent membrane potential change from unblocked channels, which was detected and measured with trans-membrane potential-sensitive dyes. Antagonists were detected as a decreased membrane potential response to the stimulus. The optical membrane potential assay utilized voltage-sensitive FRET sensors described by Gonzalez and Tsien (See, Gonzalez, J. E. and R. Y. Tsien (1995) “Voltage sensing by fluorescence resonance energy transfer in single cells” Biophys J 69(4): 1272-80, and Gonzalez, J. E. and R. Y. Tsien (1997) “Improved indicators of cell membrane potential that use fluorescence resonance energy transfer” Chem Biol 4(4): 269-77) in combination with instrumentation for measuring fluorescence changes such as the Voltage/Ion Probe Reader (VIPR®) (See, Gonzalez, J. E., K. Oades, et al. (1999) “Cell-based assays and instrumentation for screening ion-channel targets” Drug Discov Today 4(9): 431-439). B) VIPR® optical membrane potential assay method with chemical stimulation
24 hours before the assay on VIPR, CHO cells endogenously expressing a NaV1.2 type voltage-gated NaV are seeded in 96-well poly-lysine coated plates at 60,000 cells per well. […] The cells are then incubated for 20-30 minutes. • 7) Once the incubation is complete, the cells are ready to be assayed on VIPR® with a sodium addback protocol. […]
The following is an example of how NaV1.3 inhibition activity is measured using the optical membrane potential method#2. […]

Another assay has as its system neuropathic pain. To be noted: in vivo; cited from earlier work.
A further assay has as its target NaV1.9 (Homo sapiens, UniProt Q9UI33). The note with it: read-out: TTX IC50; cited from earlier work.
The target of assay [2] is T1, NaV1.8. The note with it: read-out: TTX IC50; cited from earlier work.
Another assay deals with NaV1.3 (Homo sapiens, UniProt Q9NY46). The note with it: read-out: TTX IC50; cited from earlier work.
Another assay addresses NaV1.6 (Homo sapiens, UniProt Q9UQD0). To be noted: read-out: TTX IC50; cited from earlier work.
For another assay, the target named is NaV1.1 (Homo sapiens, UniProt P35498). The note with it: read-out: TTX IC50; cited from earlier work.
In another assay the target is NaV1.2 (Homo sapiens, UniProt Q99250). To be noted: read-out: TTX IC50; cited from earlier work.
Chain of NaV1.2 (Q99250 whole entry, looked up): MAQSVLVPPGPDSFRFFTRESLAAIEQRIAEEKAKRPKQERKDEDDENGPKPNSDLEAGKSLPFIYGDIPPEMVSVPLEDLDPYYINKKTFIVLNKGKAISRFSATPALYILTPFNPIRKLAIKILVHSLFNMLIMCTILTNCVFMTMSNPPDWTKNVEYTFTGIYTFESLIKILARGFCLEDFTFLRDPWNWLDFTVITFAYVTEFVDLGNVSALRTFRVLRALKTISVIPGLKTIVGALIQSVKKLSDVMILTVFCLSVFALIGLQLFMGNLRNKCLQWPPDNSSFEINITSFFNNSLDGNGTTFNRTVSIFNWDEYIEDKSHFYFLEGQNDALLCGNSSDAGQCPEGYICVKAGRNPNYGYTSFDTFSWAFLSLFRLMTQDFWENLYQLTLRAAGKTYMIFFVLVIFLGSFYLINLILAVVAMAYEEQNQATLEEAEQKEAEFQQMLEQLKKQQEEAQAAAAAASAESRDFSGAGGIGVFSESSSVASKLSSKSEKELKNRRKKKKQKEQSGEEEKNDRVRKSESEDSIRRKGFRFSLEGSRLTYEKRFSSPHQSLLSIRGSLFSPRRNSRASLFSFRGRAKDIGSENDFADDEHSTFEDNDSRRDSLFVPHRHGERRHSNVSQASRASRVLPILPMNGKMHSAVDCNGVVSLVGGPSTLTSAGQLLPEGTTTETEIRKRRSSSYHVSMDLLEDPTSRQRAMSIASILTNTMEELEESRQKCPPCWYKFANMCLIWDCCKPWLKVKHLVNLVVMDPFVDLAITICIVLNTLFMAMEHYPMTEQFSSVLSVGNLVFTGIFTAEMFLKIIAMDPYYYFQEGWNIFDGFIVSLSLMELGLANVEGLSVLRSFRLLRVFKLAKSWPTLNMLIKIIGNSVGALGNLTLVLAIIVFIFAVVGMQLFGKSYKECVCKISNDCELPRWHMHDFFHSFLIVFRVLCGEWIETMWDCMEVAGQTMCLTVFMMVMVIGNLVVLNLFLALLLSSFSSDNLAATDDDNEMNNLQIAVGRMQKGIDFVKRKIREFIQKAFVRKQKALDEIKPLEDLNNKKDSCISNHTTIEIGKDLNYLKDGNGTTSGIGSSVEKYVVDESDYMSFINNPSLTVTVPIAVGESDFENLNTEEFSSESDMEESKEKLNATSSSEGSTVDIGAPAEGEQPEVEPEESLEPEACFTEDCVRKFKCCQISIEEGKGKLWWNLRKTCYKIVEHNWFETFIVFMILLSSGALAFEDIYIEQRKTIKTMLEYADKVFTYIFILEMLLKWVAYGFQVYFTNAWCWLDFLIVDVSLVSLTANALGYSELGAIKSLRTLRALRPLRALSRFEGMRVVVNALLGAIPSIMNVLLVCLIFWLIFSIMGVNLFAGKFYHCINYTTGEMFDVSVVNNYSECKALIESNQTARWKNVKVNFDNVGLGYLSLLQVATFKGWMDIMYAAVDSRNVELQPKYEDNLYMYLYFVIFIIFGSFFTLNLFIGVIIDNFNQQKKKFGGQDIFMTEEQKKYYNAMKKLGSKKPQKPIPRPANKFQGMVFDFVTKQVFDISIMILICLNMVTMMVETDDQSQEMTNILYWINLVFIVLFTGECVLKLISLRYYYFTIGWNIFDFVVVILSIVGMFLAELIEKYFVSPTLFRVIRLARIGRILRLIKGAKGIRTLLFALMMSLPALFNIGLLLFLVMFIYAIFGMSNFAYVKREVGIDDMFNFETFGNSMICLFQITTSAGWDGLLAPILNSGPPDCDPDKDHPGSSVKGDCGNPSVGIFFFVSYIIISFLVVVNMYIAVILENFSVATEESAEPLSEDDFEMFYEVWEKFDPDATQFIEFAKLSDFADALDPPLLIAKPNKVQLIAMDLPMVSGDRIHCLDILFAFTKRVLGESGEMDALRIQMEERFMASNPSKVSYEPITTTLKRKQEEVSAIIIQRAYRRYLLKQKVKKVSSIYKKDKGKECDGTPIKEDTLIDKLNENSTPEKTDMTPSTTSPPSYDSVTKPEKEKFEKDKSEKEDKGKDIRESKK

T1 sequence (Q9Y5Y9 whole entry, looked up): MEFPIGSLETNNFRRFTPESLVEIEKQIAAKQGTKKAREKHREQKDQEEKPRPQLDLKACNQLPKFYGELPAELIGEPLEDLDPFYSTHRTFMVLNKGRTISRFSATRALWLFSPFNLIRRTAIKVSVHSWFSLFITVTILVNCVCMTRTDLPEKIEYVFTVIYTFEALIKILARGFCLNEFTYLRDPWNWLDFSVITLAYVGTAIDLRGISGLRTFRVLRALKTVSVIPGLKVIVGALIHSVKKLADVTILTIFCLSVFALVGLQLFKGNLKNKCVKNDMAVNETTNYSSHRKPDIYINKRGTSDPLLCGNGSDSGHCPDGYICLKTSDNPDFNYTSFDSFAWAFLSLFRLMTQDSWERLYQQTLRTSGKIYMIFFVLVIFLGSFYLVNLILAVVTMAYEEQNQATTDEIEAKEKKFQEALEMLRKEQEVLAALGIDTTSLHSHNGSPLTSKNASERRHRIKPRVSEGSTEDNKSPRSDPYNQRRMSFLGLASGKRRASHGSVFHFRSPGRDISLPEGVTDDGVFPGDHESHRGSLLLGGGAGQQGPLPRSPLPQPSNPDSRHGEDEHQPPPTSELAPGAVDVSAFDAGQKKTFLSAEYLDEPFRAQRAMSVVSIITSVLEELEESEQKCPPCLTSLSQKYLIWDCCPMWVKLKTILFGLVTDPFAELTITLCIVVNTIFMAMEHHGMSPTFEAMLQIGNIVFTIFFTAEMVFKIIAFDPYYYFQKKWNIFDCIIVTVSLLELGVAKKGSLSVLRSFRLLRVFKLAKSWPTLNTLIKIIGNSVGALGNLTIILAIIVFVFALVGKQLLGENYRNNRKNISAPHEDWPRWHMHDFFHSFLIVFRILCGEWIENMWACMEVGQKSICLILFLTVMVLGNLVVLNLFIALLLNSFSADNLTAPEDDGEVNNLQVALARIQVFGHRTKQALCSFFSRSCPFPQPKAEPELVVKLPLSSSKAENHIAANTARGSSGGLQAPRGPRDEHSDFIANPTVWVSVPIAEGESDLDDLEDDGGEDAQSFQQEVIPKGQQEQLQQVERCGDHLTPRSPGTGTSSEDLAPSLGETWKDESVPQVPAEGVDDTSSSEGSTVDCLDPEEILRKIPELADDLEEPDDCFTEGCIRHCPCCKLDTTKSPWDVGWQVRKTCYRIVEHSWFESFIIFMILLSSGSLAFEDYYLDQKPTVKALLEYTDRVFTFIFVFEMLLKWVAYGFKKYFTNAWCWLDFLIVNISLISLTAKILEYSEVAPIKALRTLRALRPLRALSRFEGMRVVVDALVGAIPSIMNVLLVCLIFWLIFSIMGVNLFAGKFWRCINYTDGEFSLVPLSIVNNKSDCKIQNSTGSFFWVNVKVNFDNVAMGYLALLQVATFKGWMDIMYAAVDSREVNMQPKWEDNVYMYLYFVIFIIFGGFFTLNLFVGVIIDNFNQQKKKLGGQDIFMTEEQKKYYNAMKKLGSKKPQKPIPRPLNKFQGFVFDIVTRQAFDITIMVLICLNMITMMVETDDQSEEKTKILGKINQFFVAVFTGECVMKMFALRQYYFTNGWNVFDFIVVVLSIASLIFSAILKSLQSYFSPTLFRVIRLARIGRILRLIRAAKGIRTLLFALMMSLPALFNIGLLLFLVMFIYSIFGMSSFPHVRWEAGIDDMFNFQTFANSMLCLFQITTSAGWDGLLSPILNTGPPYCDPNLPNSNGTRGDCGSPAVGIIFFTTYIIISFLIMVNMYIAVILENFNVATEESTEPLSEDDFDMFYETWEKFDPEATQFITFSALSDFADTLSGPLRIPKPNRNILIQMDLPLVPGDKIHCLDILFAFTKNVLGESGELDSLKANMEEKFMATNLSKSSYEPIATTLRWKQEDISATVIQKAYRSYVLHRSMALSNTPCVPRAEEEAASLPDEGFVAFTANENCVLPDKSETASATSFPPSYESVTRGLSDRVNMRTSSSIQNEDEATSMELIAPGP

In the case of `CC(C)COC(=O)N1CCN(c2nc(-c3ccccc3O)cc3ccccc23)CC1` [Compound 3, Isobutyl 4-(3-(2-hydroxyphenyl)isoquinolin-1-yl)piperazine-1-carboxylate], on NaV1.8 [1], the IC50 is more than 15000 nM.
Still for that read-out and setting: the figure for `CC(C)COC(=O)N1CCN(c2nc(-c3ccccc3C(F)F)cc3ccccc23)CC1` [Compound 4, Isobutyl 4-(3-(2-(difluoromethyl)phenyl)isoquinolin-1-yl)piperazine-1-carboxylate] is more than 15000 nM; for `CC(C)COC(=O)NC1CCN(c2nc(-c3ccccc3O)cc3ccccc23)CC1` [Compound 1, Isobutyl 1-(3-(2-hydroxyphenyl)isoquinolin-1-yl)piperidin-4-ylcarbamate] it is 10000 to 15000 nM.
Regarding `NCC1(CC(=O)O)CCCCC1` [Gabapentin], the “share of patients in whom it works” value with neuropathic pain is given as 60%.
`NC1=N[C@H](O)[C@H]2[C@H]3O[C@]4(O)O[C@@H]([C@@H](O)[C@@]2(N1)[C@@H]4O)[C@]3(O)CO` [TTX, tetrodotoxin]: the IC50 at NaV1.9 is 1000 nM; on NaV1.8 [2], more than 50000 nM; at NaV1.3 it was 15 nM; at NaV1.6 it was 6 nM; on NaV1.1, 10 nM; on NaV1.2, 10 nM.

As usually defined, the IC50 is the concentration needed to halve the response being measured.
